# Legend:
# C. albicans cells = assay: small molecule screen for inhibitors of the Spider media-induced budded-to-hyphal transition; format: cell-based, Candida albicans
# Protocol: For the screen, C. albicans cells were grown in YNB media that inhibits hyphal growth and then transferred to 384-well optical plates containing Spider media to induce the budded-to-hyphal transition and hyphal elongation. […] In FIG. 3, the indicated small molecules were added at the indicated concentrations at time 0 and growth was allowed to continue for 4 h at 37° C. before the cells were fixed and observed microscopically. YNB media is well known in the art and contains yeast nitrogen base (DIFCO Labs.), glucose (US Biological) and d-H2O. Spyder media is well known in the art and contains nutrient broth (DIFCO Labs.), mannitol (Sigma-Aldrich), K2HPO4 (Sigma-Aldrich) and d-H2O.
# Next, small molecules were assayed for their ability to inhibit the Spider media-induced hyphal growth.
# The basic microscopic screen was described in detail above. To identify inhibitors, C. albicans cells are initially grown in YNB media that inhibits hyphal growth and then transferred to 384-well optical assay plates containing Spider media to induce the transition to hyphae. Individual molecules from the Chembridge small molecule library (Kao, R. Y. T., et al., 2002, Proc. Natl. Acad. Sci. USA 99: 10066-10071), or other library, are transferred from a 384-well plate containing stock solutions to individual wells of the assay plates. For convenience, positive and negative controls may be located at each corner of the plate. These plates are incubated at 37° C. for 4 h to allow for hyphal elongation before the cells are fixed and screened. Screening occurs on an inverted Nikon microscope with a computer driven XY stage with DIC/Hoffman optics, digital SPOT® camera and automatic shutter. Pictures are automatically taken of each well with the plate number and well position embedded in the picture through a script written for OpenLab® image analysis software from Improvision (INVIVO, from QED Imaging, Inc.). Inhibitory molecules are identified by rapidly screening a picture of each well for the presence of budded cells and absence of hyphal cells. Each inhibitor is retested at both 4 h and 16 h to eliminate those compounds that are cytotoxic, delay hyphal formation, or delay elongation through a growth defect. Molecules that give consistent inhibition of the budded-to-hyphal transition with continued budded growth with no hyphae out to 16 are further characterized as described below. A dose-response for each molecule is established through serial dilutions in order to determine the threshold concentration of each molecule. Typical threshold concentrations range from about 1 to about 100 micromolar (μM). In addition, the reversibility of each molecule is tested by washing out the molecule and adding fresh Spider media; cells that resume hyphal growth indicate that the molecule is reversible in action and that the molecule's initial effects were not due to cytotoxicity.
# [1] = Scott, V. R., et al., 1988; cited from earlier work
smiles,measurement,setting,value
C/C1=C\[C@H](C)C[C@H](C)OC(=O)C[C@H](c2ccc(O)cc2)NC(=O)[C@@H](Cc2c(Br)[nH]c3ccccc23)N(C)C(=O)[C@H](C)NC(=O)[C@@H](C)C1 [jasplakinolide],cell phenotype in the screen,C. albicans cells; 4 h at 37° C. (FIG. 3),apparent cell-cycle arrest as small budded cells
same,cytotoxicity in the screen,C. albicans cells; 4 h at 37° C. (FIG. 3),dose-dependent cytotoxic molecule
same,anti-fungal activity,[1],previously shown to have anti-fungal activity
"C/C1=C/C(=O)O[C@@H]2C[C@@H](CC[C@H](C)/C=C\C=C\CC1)O[C@@](O)([C@@H]1CSC(=O)N1)C2 [Lat A, latrunculin-A]",dose-dependence of the inhibition,C. albicans cells,dose-dependent
same,reversibility of the inhibition,C. albicans cells,reversible
same,inhibition of the budded-to-hyphal transition and hyphal growth,"C. albicans cells; 0.1 μM, 4 h at 37° C.",effect was lost
same,inhibition of the budded-to-hyphal transition and hyphal growth,"C. albicans cells; 1.6 μM added at time 0, 4 h at 37° C.",inhibited the budded-to-hyphal transition and hyphal growth

# Source: patent US7763660B2, “Inhibitors of Candida albicans” (The University of Vermont and State Agricultural College, priority 2003, dated 2010)
